Structures are written as SMILES. Where a name gives a salt, the structure may show the parent alone.

The text below walks through data of paper PMC10681007, “Targeted Degradation of XIAP is Sufficient and Specific to Induce Apoptosis in MYCN-overexpressing High-risk Neuroblastoma” (Cancer Research Communications, 2023).

Type in all cases: cell-based, Human
The test system of one assay is KELLY. The assay can be described thus: Drug interactions assay (Chou-Talalay CI, DRI). The settings on record: vincristine dose axis, 48 hours. Here is the method: (§1) Drug interactions between XIAP-specific antagonist A4 and vincristine or topotecan were determined using the combination index (CI) by Chou and Talalay which was established on the basis of the mass-action law principle to derive the median-effect equation ([25]). […] Cell viability was measured and CI and dose reduction index (DRI) values were quantified using the CompuSyn software by Chou–Talalay. Areas under the dose–response curves were calculated using the trapezoidal method and compared using paired t test.
(§2) For treatment of high-risk neuroblastoma, current standard-of-care utilizes intensive multimodal therapy involving combinations of multiple cytotoxic agents. […] To analyze potential drug interactions, treatment of BE(2)-C and KELLY cells with A4 in combination with either vincristine or topotecan was examined. Using Chou–Talalay method, the drug interaction effect/type determined by the drug combination (CI) index is as follows: CI <1 (synergistic effect); CI = 1 (additive effect); CI >1 (antagonistic effect).
(§3) CI was generated using CompuSyn software by Chou–Talalay ([25]). CI60–90 represents the average CI at 60%–90% cell death. CI <1 denotes synergistic effect; CI = 1 denotes addictive effect and CI >1 denotes antagonistic effect. […] DRI was generated using CompuSyn software by Chou–Talalay. DRI60–90 represents the average DRI at 60%–90% cell death. DRI <1 denotes unfavorable dose reduction and DRI >1 denotes favorable dose reduction.

A further assay deals with BE(2)-C. As to the kind of experiment: Drug interactions assay (Chou-Talalay CI, DRI). Conditions: vincristine dose axis, 48 hours. Here is the method: as §1, §2, §3
The test system of a further assay is SK-N-AS. As to the kind of experiment: Drug interactions assay (Chou-Talalay). Conditions: in combination with A4. The procedure: as §1
DRI <1 denotes unfavorable dose reduction and DRI >1 denotes favorable dose reduction.

Regarding `CC[C@]1(O)C[C@H]2CN(CCc3c([nH]c4ccccc34)[C@@](C(=O)OC)(c3cc4c(cc3OC)N(C=O)[C@H]3[C@@](O)(C(=O)OC)[C@H](OC(C)=O)[C@]5(CC)C=CCN6CC[C@]43[C@@H]65)C2)C1` [Vincristine, Vincristine sulfate], the “AUC of dose–response curve” value is listed as 37.5±3.9 pM* luminescence with KELLY and 9.8±0.2 pM* luminescence in the assay with BE(2)-C. Besides, the “drug interaction with A4” value with SK-N-AS is on record as “only additive effect”.
